Results published in patent publication US5223484A, “Peptide which regulates weight gain in mammals” (Georgetown University, priority 1990, dated 1993).

Columns and labels:
[1] = Body weight of rabbits injected with peptide/carrier conjugate; format: in vivo; conditions: female rabbits, peptide coupled to keyhole limpet hemocyanin, 50 μg of peptide subcutaneously, repeated at two weeks then approximately monthly; P1 and P3 pooled (five rabbits)
Procedure: These peptides were then coupled chemically to keyhole limpet hemocyanin, a carrier protein, to improve the immunogenicity in rabbits.
Each peptide/carrier conjugate (50 μg of peptide, approximately 30 nanomoles) was injected subcutaneously into three female rabbits (three groups of three rabbits, approximately 2 months old). Two weeks later the rabbits were injected again with the same amounts of peptide/carrier conjugate. Thereafter, each rabbit was injected with the conjugate at approximately monthly intervals and blood samples were drawn. After five months, the rabbits were sacrificed.
Before the first injection, the rabbits were weighed for calculation of anesthetic dose (used to sedate the rabbits during injection). Before the rabbits were sacrificed, they were weighed again as the rabbits which received P2 were quite obese compared to all other rabbits. The average weight of the five injected with peptides P1 and P3 was 4.4 kg. This is normal for adult female rabbits of this type at this age, i.e. the average weight expected at 6 months is 4.5 kg. However, the weights of the rabbits injected with peptide P2 averaged 5.2 kg, approximately 20% higher.

[2] = Weight gain of mice injected with free peptide; format: in vivo, mice (BALB/c strain); conditions: BALB/c mice, free peptide 2.5 μg subcutaneously once per week, 85 days, five mice per group
Procedure: In order to obtain statistically significant data on the effects of peptide P2 on weight gain, another series of experiments using mice were performed. Three groups of five mice (BALB/c strain) were used. The first group received injections of peptide P2, a second group received injections of P3 (as control), and a third group received injections of saline (as control). Free peptides were used to avoid the possibility that the effect observed in Example 1 may have been due to the nature of the chemical coupling to the carrier protein. Each mouse (weighing approximately 15 grams) received an injection of 2.5 μg (1.5 nanomoles) of peptide or saline injected subcutaneously. The mice were weighed three times per week and injected once per week with another 2.5 μg of peptide or saline. After 85 days the mice were sacrificed.

Substance | average weight of the rabbits at the end of five months [1] | effect on weight gain [2]
KRPLQAEEQALSMDF [P1] | 4.4 kg | 
P3: amino-terminal cytochrome b 561 sequence Ser(21) - Tyr(37), cysteine added at amino-terminus, two lysine residues at carboxy-terminus (CSMEGPASPARAPGALPYKK) | 4.4 kg | not different than the P3 control group
